Laboratory results reported in patent US20160038482A1 (CHANRX CORPORATION, priority 2013, published 2016).
Like-named read-outs stand apart in the source and are kept apart here.

Assays:
[1] = Example 1: plasma concentrations of vanoxerine and metabolites after a 300 mg dose; type: in vivo, human; conditions: low concentration group, any time point
Experimental: Each patient gave samples before administration of their dose, and then again at nine further time points, 30 minutes after administration, 1, 2, 3, 4, 6, 8, 12, and 24 hours post administration.

[2] = pharmacokinetic parameters from tests in dogs; type: in vivo; conditions: dog, plasma
Source text: Vanoxerine is primarily eliminated from the body in urine, bile, and feces. Indeed, a substantial amount of the drug is expelled, unabsorbed into the feces. […] However, the long half-life of the drug may actually be utilized to minimize the continuous or regular dosing of the drug.

cardiac arrhythmia = type: in vivo, human; conditions: second patient, supraventricular tachycardia, 2 x 200 mg, after first dose
[3] = Example 3: daily doses for 11 consecutive days, PK and hemodynamics; type: in vivo, human; conditions: for half-life / Cmax: human, plasma, 11 days; for half-life: read-out: PK Data (Mean +/− SD) T1/2 (converted); for Cmax: read-out: PK Data (Mean +/− SD) CMax
[4] = Example 4: daily doses for 14 days in healthy patients; type: in vivo, human
Experimental: A standardized meal was served 15 minutes prior to each dosing.

[5] = Example 5: daily doses for 7 days; type: in vivo, human
[6] = test system: recent onset symptomatic AF/AFL; assay: Example 6: conversion of recent onset AF/AFL, placebo-controlled double-blind; type: in vivo, human; conditions: for Conversion of Atrial Flutter, Conversion, %: pure atrial flutter N=4, any time within 24 hours; for conversion: all doses
Experimental: The vanoxerine or identical appearing placebo was randomly assigned and administered in a double-blinded fashion. Definition of “pure” atrial flutter: only Atrial Flutter (no AF) seen at -30, -15, and 0 time points. Conversion at any time within 24 hours.

[7] = Example 6: adverse events; type: in vivo, human
Source text: The vanoxerine or identical appearing placebo was randomly assigned and administered in a double-blinded fashion.

[8] = multiple daily dosing: hemodynamic effects; type: in vivo, human
Source text: However, control and prevention of events of cardiac arrhythmia are important to these patients to prevent future re-occurrences and the deleterious effects and morbidity.

[9] = healthy subjects, cited from earlier work

## Fc1ccc(C(OCCN2CCN(CCCc3ccccc3)CC2)c2ccc(F)cc2)cc1 [Vanoxerine, 1-[2-[bis(4-fluorophenyl)methoxy]ethyl]-4-(3-phenylpropyl)piperazine]
[1]
  plasma levels (highest reached): ~40 ng/mL
[2]; oral
  Tmax: ~3 h
[2]; oral, read-out: systemic bioavailability
  bioavailability: 23%
[2]; read-out: T1/2 (elimination from the plasma) (converted)
  half-life: 22 h
Cardiac arrhythmia
  time of conversion to normal sinus rhythm: about 6 hours
[3]; 25 mg daily
  plasma levels detectability: not detectable after 8 hours
[3]; 50, 75, and 100 mg daily
  plasma levels detectability: detectable at 24 hours
  time to steady state: ≤ 8 days
[3]; 75 and 100 mg daily doses
  heart rate and systolic blood pressure: increased slightly in most subjects
[3]; across 50, 75 and 100 mg doses
  PK linearity: linear and dose proportional
[3]; 50 mg daily
  half-life: 49.4 h
[3]; 75 mg daily
  Cmax: 27.4 ng/mL
  half-life: 52.5 h
[3]; 100 mg daily
  Cmax: 40.2 ng/mL
  half-life: 15.4 h
[3]; steady state
  Cmax, ss, and AUC0-24ss inter-subject variability: 55-85%
[3]; when daily doses are given
  half-life of the drug: increased half-life
[4]; 25, 75, and 125 mg daily for 14 days
  time to steady state serum levels: 9 to 11 days
[4]; 25, 75, and 125 mg daily for 14 days, healthy patients, after standardized meal
  adverse events: No significant adverse events
[4]; higher doses compared with the lower doses
  steady state serum levels, dose proportionality: disproportionately and statistically greater levels at higher doses
[5]; 100 mg daily for 7 days
  systolic blood pressure and heart rate: increases in systolic blood pressure and heart rate were seen
[5]; 150 mg daily for 7 days
  systolic blood pressure and heart rate: increases in systolic blood pressure and in heart rate
[5]; 50, 100, and 150 mg daily, all patients
  time to steady state levels: within one week
[6]; 200 mg (22), 0-4 hr
  Percent conversion: 18%
[6]; 200 mg (22), 0-8 hr
  Percent conversion: 45%
[6]; 200 mg (22), 0-24 hr
  Percent conversion: 59%
[6]; 200 mg, 0-4 hours
  improvement of conversion (percent increase in conversion over placebo): 38%
[6]; 200 mg, 0-8 hours
  improvement of conversion (percent increase in conversion over placebo): 96%
[6]; 200 mg, 0-24 hours
  improvement of conversion (percent increase in conversion over placebo): 55%
[6]; 200 mg
  Conversion of Atrial Flutter, Conversion, %: 50%
[6]; 300 mg (25), 0-4 hr
  Percent conversion: 40%
[6]; 300 mg (25), 0-8 hr
  Percent conversion: 52%
[6]; 300 mg (25), 0-24 hr
  Percent conversion: 64%
[6]; 300 mg, 0-4 hours
  improvement of conversion (percent increase in conversion over placebo): 207%
[6]; 300 mg, 0-8 hours
  improvement of conversion (percent increase in conversion over placebo): 126%
[6]; 300 mg, 0-24 hours
  improvement of conversion (percent increase in conversion over placebo): 68%
[6]; 300 mg
  Conversion of Atrial Flutter, Conversion, %: 75%
[6]; 400 mg (25), 0-4 hr
  Percent conversion: 52%
[6]; 400 mg (25), 0-8 hr
  Percent conversion: 76%
[6]; 400 mg (25), 0-24 hr
  Percent conversion: 84%
[6]; 400 mg, 0-4 hours
  improvement of conversion (percent increase in conversion over placebo): 300%
[6]; 400 mg, 0-8 hours
  improvement of conversion (percent increase in conversion over placebo): 230%
[6]; 400 mg, 0-24 hours
  improvement of conversion (percent increase in conversion over placebo): 121%
[6]; 400 mg
  Conversion of Atrial Flutter, Conversion, %: 75%
[6]; at 12 hours
  conversion: greater than 50%
[6]; at about 7 hours
  conversion: greater than 40%
[6]; at about 16 hours
  conversion: ~60%
[6]; doses of 200, 300 and 400 mg
  conversion to sinus rhythm of recent onset symptomatic AF/AFL, dose dependence: highly statistically significant dose dependent increase
[7]; 200 mg (22)
  Adverse events: number of AEs reported: 8 AEs
  Adverse events: number of SAEs: 1 SAE
  Adverse events: subjects reporting, N (%): 4 (18%) subjects
[7]; 300 mg (25)
  Adverse events: number of AEs reported: 12 AEs
  Adverse events: subjects reporting, N (%): 7 (28%) subjects
[7]; 400 mg (25)
  Adverse events: number of AEs reported: 23 AEs
  Adverse events: number of SAEs: 1 SAE
  Adverse events: subjects reporting, N (%): 10 (40%) subjects
[7]; 200, 300 and 400 mg
  1:1 AFL post dose: No 1:1 AFL seen post dose in any subject
  proarrhythmia: absence of proarrhythmia
  tolerability: well tolerated at all doses
[8]; daily use over 7, 10, and 14 days, 75, 100, 125, and 150 mg a day
  heart rate and systolic blood pressure: increased heart rate and systolic blood pressure
[8]; multiple dosing, several subjects
  heart rate and systolic blood pressure: dose-related increases in heart rate and systolic blood pressure
[9]; daily repetitive dose of 50 mg
  side-effects: no side-effects should be expected
[9]; higher doses
  side-effects: concentration difficulties, increase systolic blood pressure, asthenia, and a feeling of drug influence
